PubChem BioAssay (NCI)
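The compound was tested at five concentrations on cells cultured in 96-well plates, with a 48-hour exposure period. GI50 = concentration required for 50% inhibition of growth. TGI: concentration producing complete growth inhibition.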

How the values were obtained:
Experiment in all cases: NCI tumour cell line growth inhibition, 48 h
BT-549 breast = test system: BT-549 breast
DU-145 prostate = test system: DU-145 prostate
HS 578T breast = test system: HS 578T breast
MCF7 breast = test system: MCF7 breast
NCI/ADR-RES ovarian = test system: NCI/ADR-RES ovarian

| SMILES | TGI (BT-549 breast) [µM] | TGI (DU-145 prostate) [µM] | TGI (HS 578T breast) [µM] | TGI (MCF7 breast) [µM] | TGI (NCI/ADR-RES ovarian) [µM] | GI50 (BT-549 breast) [µM] | GI50 (DU-145 prostate) [µM] | GI50 (HS 578T breast) [µM] | GI50 (MCF7 breast) [µM] | GI50 (NCI/ADR-RES ovarian) [µM] |
| --- | --- | --- | --- | --- | --- | --- | --- | --- | --- | --- |
| CCCCCC/C=C/C#CCCCCCCCC(=O)O | > 100 | > 100 | > 100 | > 100 | > 100 | – | – | – | – | – |
| CC/C=C\C[C@H]1C/C=C2/C(=O)C=C[C@H]2C/C=C\CCCC(=O)O1 | 9.29 | 7.39 | > 50 | 12.4 | > 50 | 2.52 | 1.9 | 10.3 | 2.21 | 1.47 |
| C[C@@H]1CC[C@H]2[C@@H](C)C(O)O[C@@H]3O[C@]4(C)CC[C@@H]1[C@]32OO4 (some centres not stated) | 45.4 | 17.4 | 42.2 | 20.4 | 12 | 0.721 | 5.27 | 1.33 | 1.66 | 0.581 |
| OCC#CCOCC#Cc1ccccc1C#CCOCC#CCO | 93.2 | > 100 | > 100 | > 100 | > 100 | 34.2 | 48.4 | > 100 | 40.7 | 46.6 |
| CNC(=O)c1cc(Oc2ccc3nc(NC(=O)Nc4ccc(CN5CCOCC5)c(C(F)(F)F)c4)sc3c2)ccn1 | 9.18 | 9.4 | 9.6 | 4.63 | 5.37 | 3.02 | 2.73 | 2.55 | 1.75 | 2.07 |
| Cc1c2cnccc2c(C)c2c1c1cc(O)ccc1n2C(C)C | 2.73 | 7.06 | 4.55 | 4.82 | 4.23 | 1.11 | 0.688 | 1.23 | 1.37 | 1.14 |
| C[C@@H](Nc1nc(N[C@H](C)C(F)(F)F)nc(-c2cccc(Cl)n2)n1)C(F)(F)F | > 100 | > 100 | > 100 | > 100 | > 100 | 37.9 | 41.6 | 26 | 50.6 | 32.9 |
| O=C1/C(=C/c2cccnc2)SC(=S)N1Cc1ccco1 | > 100 | 9.22 | > 22.1 | > 100 | > 100 | – | – | – | – | – |
| COc1ccc(-c2nn(-c3cccc(Cl)c3)cc2/C=C2\NC(=S)N(c3ccc(Cl)cc3)C2=O)cc1 | 11.6 | > 25 | 24.1 | > 25 | 14.5 | 4.46 | 8.75 | 4.14 | 5.6 | 5.51 |
| COc1ccc(-n2cc(-c3cc(OC)c(OC)c(OC)c3)nc2SCc2ccc(Cl)cc2)cc1OC | > 100 | > 100 | > 100 | > 100 | > 100 | > 100 | > 100 | 66.5 | 92.6 | 81.6 |
| O=C(NC1CCN(Cc2ccccc2)CC1)c1cc(-c2cccnc2)nc2ccc(Cl)cc12 | > 100 | > 100 | 39.4 | > 100 | > 100 | 24.8 | 8.78 | 9.9 | 4.78 | 15.6 |
| Oc1ccc2ccccc2c1CCc1c(O)ccc2ccccc12 | – | – | 45.1 | 26.3 | 31.1 | – | – | – | – | – |
| COc1ccccc1-n1cnc(N)c1C(=O)c1cc(OC)c(OC)c(OC)c1 | 66.2 | > 100 | 7.69 | > 100 | > 100 | 3.55 | 6.65 | 2.16 | 2.49 | 13.1 |
| O=C1Cc2c(-c3ccccc3)cc(-c3ccccc3)nc2-c2ccccc2N1 | 22.5 | 20.3 | 19 | – | 18.6 | – | – | – | – | – |
| O=CC(OC(=O)c1ccccc1)C(OC(=O)c1ccccc1)C(COC(c1ccccc1)(c1ccccc1)c1ccccc1)OC(=O)c1ccccc1 (configuration not stated) | > 100 | 28.6 | > 100 | 23.7 | 45.4 | 23.4 | 15.3 | 33.2 | 6.38 | 19.3 |
| COc1ccc2[nH]c(Cl)c(/C=C3/C(=O)Nc4ccccc43)c2c1 | 0.523 | 2.35 | 4.31 | > 38.5 | 3.38 | 0.185 | 0.279 | 0.837 | 0.79 | 0.715 |
| Nc1n[n+]([O-])c2cc([N+](=O)[O-])ccc2[n+]1[O-] | 32 | 31.7 | 44 | 11.7 | 32.8 | – | – | – | – | – |
